Tests used:
Type in all cases: in vivo
[1] = tested on: green peach aphid (Myzus persicae); test: Myzus persicae spray test; settings: foliar, 120 h, application rate 100 g/ha, after 5 days, Chinese cabbage leaf disks, read-out: activity (mortality)
In short: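 Percent kill was recorded 5 days after spraying. Test solutions, prepared with solvent and diluted in 1000 ppm emulsifier water, were applied to Brassica pekinensis leaf disks carrying mixed-instar green peach aphids.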

[2] = tested on: adult cat fleas (Ctenocephalides felis); test: Ctenocephalides felis in-vitro contact test, adult cat flea; settings: application rate 5 μg/cm^2 (=500 g/ha), after 48 hours, read-out: activity (efficacy: fleas dead or moribund)
In short: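 After 48 h of room-temperature exposure in tubes whose walls carried dried compound residue (5 μg/cm^2, from 900 ppm acetone solution), adult cat fleas (5-10 per tube) were heat-challenged at 45-50° C up to 5 min. Fleas unable to climb away were counted dead or moribund, expressed as % efficacy.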

[3] = tested on: Rhipicephalus (Boophilus) microplus larvae (strain Parkhurst, resistant against synthetic pyrethroids); test: Rhipicephalus (Boophilus) microplus in-vitro contact test, larval cattle tick; settings: after 48 hours, read-out: activity (efficacy: larvae dead or moribund); for pest or weed control at 1 µg/cm2, 100 g/ha: application rate 1 μg/cm^2 (=100 g/ha); for pest or weed control at 5 µg/cm2, 500 g/ha: application rate 5 μg/cm^2 (=500 g/ha)
In short: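 Pyrethroid-resistant Parkhurst larvae, 20–50 per tube, were kept 48 h at 27 °C and 85% relative humidity in glass tubes whose inner walls carried a dried acetone film of compound (900 ppm giving 5 μg/cm^2). Dead or moribund larvae, judged by loss of negative geotactic behavior, set percent efficacy.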

[4] = tested on: cattle ticks (Rhipicephalus microplus) strain Parkhurst, SP-resistant; test: Rhipicephalus (Boophilus) microplus dip test; settings: 168 h, application rate 100 ppm, egg deposition after 7 days, read-out: activity (efficacy: infertile eggs)
Procedure: Rhipicephalus (Boophilus) microplus—Dip Test
Test animal: cattle ticks (Rhipicephalus microplus) strain Parkhurst, SP-resistant
Solvent: dimethyl sulfoxide
To produce a suitable preparation of active compound, 10 mg of active compound are dissolved in 0.5 mL solvent, and the concentrate is diluted with water to the desired concentration.
This compound solution is pipetted into tubes. 8-10 engorged, adult, female cattle ticks (Rhipicephalus microplus) are placed in perforated tubes. These tubes are immersed in the aqueous compound solution until the ticks are completely moistened. After the liquid has drained off, the ticks are transferred to a filter paper in a plastic tray and stored in a climate chamber.
After 7 days egg deposition of fertile eggs is monitored. Eggs where fertility is not visible are stored in a climate chamber till hatching after about 42 days. An efficacy of 100% means all eggs are infertile; 0% means all eggs are fertile.

[5] = tested on: brown planthopper (Nilaparvata lugens); test: Nilaparvata lugens spray test; settings: 96 h, after 4 days, rice plants
In short: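 Rice plants sprayed with compound diluted in water containing 1000 ppm emulsifier, then infested with brown planthopper. Mortality (%) scored after 4 days, 100% meaning all insects killed.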

[6] = tested on: adult mosquitoes Anopheles funestus strain FUMOZ-R; test: Anopheles funestus test (ANPHFU surface treatment & contact assay); settings: 24 hours after contact, read-out: efficacy (mortality); for mortality at 4 mg/m2: surface concentration 4 mg/m^2, exposure 30 minutes; for mortality at 20 mg/m2: surface concentration 20 mg/m^2, exposure 30 minutes
Procedure: Anopheles funestus Test (ANPHFU Surface Treatment & Contact Assay)
(§1) Solvent: Aceton+2000 ppm rapeseed oil methyl ester (RME)
(§2) In order to produce a sufficient, active ingredient containing solution it is necessary to solve the test compound in the solvent-mix (acetone at 2 mg/ml/RME 2000 ppm). This solution is pipetted onto a glazed tile and after evaporation of the acetone, adult mosquitoes of the species Anopheles funestus strain FUMOZ-R (Hunt et al., Med. Vet. Entomol. 2005 September; 19(3): 271-275) are placed onto the dried surface. The exposure time is 30 minutes.
(§3) Mortality in percent (%) is determined 24 hours after contact of the insects to the treated surface. 100% mortality means that all tested insects are dead, whereas 0% means that no insect died.

[7] = tested on: larvae of the southern green stink bug (Nezara viridula); test: Nezara viridula spray test; settings: 96 h, after 4 days, barley plants
In short: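 Barley plants sprayed with the active compound in emulsifier-containing water, then infested with stink bug larvae. Mortality scored in % after 4 days, with 100% meaning all insects killed.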

[8] = tested on: adult mosquitoes Culex quinquefasciatus strain P00; test: Culex quinquefasciatus test (CULXFA surface treatment & contact assay); settings: 24 hours after contact, read-out: efficacy (mortality); for mortality at 20 mg/m2: surface concentration 20 mg/m^2, exposure 30 minutes
Procedure: Culex quinquefasciatus Test (CULXFA Surface Treatment & Contact Assay)
as §1
as §2, with “2 000” for “2000”, “Culex quinquefasciatus” for “Anopheles funestus”, “P00” for “FUMOZ-R (Hunt et al., Med. Vet. Entomol. 2005 September; 19(3): 271-275)”
as §3

Row | Structure (SMILES) | mortality at 100 g/ha [1] [%] | pest or weed control at 5 µg/cm2 [2] [%] | pest or weed control at 1 µg/cm2, 100 g/ha [3] [%] | pest or weed control at 5 µg/cm2, 500 g/ha [3] [%] | pest or weed control at 100 ppm [4] [%] | mortality at 100 g/ha ([5]; application rate 100 g/ha) [%] | mortality at 4 mg/m2 [6] [%] | mortality at 20 mg/m2 [6] [%] | mortality at 100 g/ha ([7]; application rate 100 g/ha) [%] | mortality at 20 mg/m2 [8] [%] | mortality at 500 g/ha ([5]; application rate 500 g/ha) [%] | mortality at 500 g/ha ([7]; application rate 500 g/ha, read-out: activity (mortality)) [%] | mortality at 4 mg/m2 ([8]; surface concentration 4 mg/m^2, exposure 30 minutes) [%]
1 | C[C@@H]1CN(C(=O)c2ccc(-n3ncnc3[C@H](C)NC(=O)c3cc(C(F)(F)F)cc(C(F)(F)F)c3)nc2)C[C@H](C)O1 [Example I-50] | 90 | 100 | 100 | 100 | 100 | 90 | 80 to 100 | 80 to 100 | 100 | 80 to 100 |  |  | 
2 | Cc1nc([C@H](C)NC(=O)c2cc(C(F)(F)F)cc(C(F)(F)F)c2)n(-c2ccc(C(=O)N3CCS(=O)(=O)CC3)cn2)n1 [Example I-76] | 90 | 100 | 100 | 100 |  |  | 80 to 100 | 80 to 100 |  | 80 to 100 | 100 | 100 | 80 to 100

— patent publication US20230058623A1, “NOVEL HETEROARYL-TRIAZOLE COMPOUNDS AS PESTICIDES” (Bayer Aktiengesellschaft, priority 2019, published 2023)
